Literature values, collected in patent US20030187074A1, “Oral compositions for treatment of diabetes” (priority 2002, published 2003).

Settings: Physician's Desk Reference, 2001, page 2980

- half-life of elimination from the human body: 3 to 4 h
Compound: CN(CCOc1ccc(CC2SC(=O)NC2=O)cc1)c1ccccn1 (stereo not shown) [rosiglitazone]
